From patent US20260070924A1, “INDAZOLE MACROCYCLES AND THEIR USE” (BLOSSOMHILL THERAPEUTICS, INC., priority 2022, published 2026)

Legend:
Test in all cases: Cell proliferation panel (CellTiter-Glo 2.0, 5 days)
Assay type in all cases: cell-based
[1] = system: HCC1569; conditions: Mammary gland metaplastic carcinoma
Protocol: (§1) Cell proliferation assay was carried out in a panel of 108 cell lines. 1000 (attached cells) or 3000 (suspension cells) cells/100 μl per well were seeded in 96 well black plate with a clear bottom (Corning #3904). Compounds were added using Tecan D300e Digital Dispenser in 1:3 titration for 9 doses. Plates were incubated for 5 days at 37° C. and 5% CO2. Cell proliferation was measured using CellTiter-Glo 2.0 luciferase-based ATP detection assay (Promega, Madison, WI) at 50 μl per well following the manufacturer's protocol. Plates were then read on a TECAN Sparks multimode microplate reader. Data was analyzed using GraphPad Prism 9 (GraphPad Software, San Diego, CA) to obtain IC50 values. IC50 values were determined using Prism software (GraphPad Software, San Diego, CA).

[2] = system: H358; conditions: Bronchioalveolar carcinoma NSCLC
Protocol: as §1

[3] = system: H2444; conditions: Lung adenocarcinoma NSCLC
Protocol: as §1

[4] = system: MC38; conditions: Murine colon adenocarcinoma
Protocol: as §1

[5] = system: Caki-2; conditions: Kidney clear cell carcinoma
Protocol: as §1

[6] = system: HCT116; conditions: Colorectal adenocarcinoma
Protocol: as §1

[7] = system: KASUMI-3; conditions: Acute myeloblastic leukemia
Protocol: as §1

[8] = system: Ovcar3; conditions: Ovarian adenocarcinoma
Protocol: as §1

[9] = system: LNCaP; conditions: Prostate carcinoma
Protocol: as §1

[10] = system: A549; conditions: Lung carcinoma, NSCLC
Protocol: as §1

[11] = system: COR-L23; conditions: Large cell lung carcinoma
Protocol: as §1

[12] = system: HNT-34; conditions: Acute myeloid leukemia
Protocol: as §1

[13] = system: LS513; conditions: Colorectal carcinoma
Protocol: as §1

[14] = system: PANC0403; conditions: Pancreatic adenocarcinoma
Protocol: as §1

[15] = system: IMR-32; conditions: Neuroblastoma
Protocol: as §1

[16] = system: H727; conditions: Bronchial lung carcinoid
Protocol: as §1

[17] = system: SKNO-1; conditions: Acute myeloid leukemia
Protocol: as §1

[18] = system: SK-LU-1; conditions: Lung adenocarcinoma NSCLC
Protocol: as §1

[19] = system: SK-BR-3; conditions: Breast adenocarcinoma
Protocol: as §1

[20] = system: 769-P; conditions: Renal cell adenocarcinoma
Protocol: as §1

[21] = system: H1792; conditions: Lung adenocarcinoma NSCLC
Protocol: as §1

[22] = system: GP2D; conditions: Colon adenocarcinoma
Protocol: as §1

[23] = system: Toledo; conditions: Diffuse Large B Cell Lymphoma
Protocol: as §1

[24] = system: HCC827; conditions: Lung adenocarcinoma NSCLC
Protocol: as §1

[25] = system: A-498; conditions: Kidney carcinoma
Protocol: as §1

[26] = system: Hs746T; conditions: Gastric carcinoma
Protocol: as §1

[27] = system: MOLM-1; conditions: Chronic myeloid leukemia
Protocol: as §1

[28] = system: NB-1; conditions: Neuroblastoma
Protocol: as §1

[29] = system: MIAPaCa-2; conditions: Pancreatic carcinoma
Protocol: as §1

[30] = system: U87 MG; conditions: Glioblastoma
Protocol: as §1

[31] = system: LS180; conditions: Colorectal adenocarcinoma
Protocol: as §1

[32] = system: SW620; conditions: Colorectal adenocarcinoma
Protocol: as §1

[33] = system: SU-DHL-6; conditions: Diffuse Large B Cell Lymphoma
Protocol: as §1

[34] = system: SW403; conditions: Colorectal adenocarcinoma
Protocol: as §1

[35] = system: ZR-75-1; conditions: Mammary gland ductal carcinoma
Protocol: as §1

[36] = system: KATOIII; conditions: Gastric carcinoma
Protocol: as §1

[37] = system: CAPAN2; conditions: Pancreatic adenocarcinoma
Protocol: as §1

[38] = system: H1573; conditions: Lung adenocarcinoma NSCLC
Protocol: as §1

[39] = system: H2291; conditions: Lung adenocarcinoma NSCLC
Protocol: as §1

[40] = system: 786-O; conditions: Renal cell adenocarcinoma
Protocol: as §1

[41] = system: SNU-16; conditions: Gastric carcinoma
Protocol: as §1

[42] = system: H526; conditions: Small cell lung cancer
Protocol: as §1

[43] = system: JeKo-1; conditions: Mantle cell lymphoma
Protocol: as §1

[44] = system: DU4475; conditions: Breast carcinoma
Protocol: as §1

[45] = system: UCSD-AML1; conditions: Acute myeloid leukemia
Protocol: as §1

[46] = system: MFM-223; conditions: Breast carcinoma
Protocol: as §1

## CCc1nn(C)c2c1/C=C/c1n[nH]c3ccc(cc13)-c1cnn(C)c1OCCN(C)C2=O [Ex. 6, (17E)-16-ethyl-8,12,14-trimethyl-2,11,12,14-tetrahydro-8H-3,5-ethenotripyrazolo[3,4-f:3′,4′-j:4″,3″-n][1,4]oxazacyclopentadecin-13(10H)-one]
[1]
  IC50: 151 nM
[2]
  IC50: 148 nM
[3]
  IC50: 117 nM
[4]
  IC50: 217 nM
[5]
  IC50: 142 nM
[6]
  IC50: 60.2 nM
[7]
  IC50: 43.3 nM
[8]
  IC50: 70.7 nM
[9]
  IC50: 136 nM
[10]
  IC50: 67.7 nM
[11]
  IC50: 98.4 nM
[12]
  IC50: 22.3 nM
[13]
  IC50: 30.1 nM
[14]
  IC50: 220 nM
[15]
  IC50: 11.2 nM
[16]
  IC50: 100 nM
[17]
  IC50: 23.3 nM
[18]
  IC50: 166 nM
[19]
  IC50: 38.8 nM
[20]
  IC50: 91.6 nM
[21]
  IC50: 121 nM
[22]
  IC50: 121 nM
[23]
  IC50: 34.6 nM
[24]
  IC50: 70.9 nM
[25]
  IC50: 169 nM
[26]
  IC50: 183 nM
[27]
  IC50: 80.5 nM
[28]
  IC50: 45 nM
[29]
  IC50: 53.2 nM
[30]
  IC50: 89.2 nM
[31]
  IC50: 82.7 nM
[32]
  IC50: 76.5 nM
[33]
  IC50: 28.4 nM
[34]
  IC50: 18 nM
[35]
  IC50: 144 nM
[36]
  IC50: 158 nM
[37]
  IC50: 365 nM
[38]
  IC50: 80.6 nM
[39]
  IC50: 362 nM
[40]
  IC50: 138 nM
[41]
  IC50: 90.5 nM
[42]
  IC50: 75.5 nM
[43]
  IC50: 20.6 nM
[44]
  IC50: 61.4 nM
[45]
  IC50: 15.5 nM
[46]
  IC50: 36.8 nM
